# Measured values as given in US10538555B2, “Macrocyclic inhibitors of the PD-1/PD-L1 and CD80(B7-1)/PD-L1 protein/protein interactions” (BRISTOL-MYERS SQUIBB COMPANY, priority 2014, dated 2020).
# pIC50: −log10 of the molar value. *1 amine or outer side, *2 acyl side, *3 side chain or, on linkers, in order; H or OH if unused. Where a SMILES comes first, the peptide text is derived from it. Bridges are numbered along the chain shown (N, C = ends). [ ]: non-standard residue; d: D form. ξ: configuration not given here. Trp(1-CH2COOH) = N[C@@H](Cc1cn(CC(=O)O)c2ccccc12)C(=O)O; Phe(3,4,5-F3) = N[C@@H](Cc1cc(F)c(F)c(F)c1)C(=O)O; NMePhe(4-F) = CN[C@@H](Cc1ccc(F)cc1)C(=O)O; Phe(4-F) = N[C@@H](Cc1ccc(F)cc1)C(=O)O; d(cisHyp) = O=C(O)[C@H]1C[C@@H](O)CN1; Hyp = O=C(O)[C@@H]1C[C@@H](O)CN1; NMeF = CN[C@@H](Cc1ccccc1)C(=O)O; X1 = O=C([C@H]1COCCN1[*:1])[*:2]; dPip(4-aza) = O=C(O)[C@H]1CNCCN1; dHyp = O=C(O)[C@H]1C[C@H](O)CN1; NMeNle = CCCC[C@H](NC)C(=O)O; Tle = CC(C)(C)[C@H](N)C(=O)O; Pip = O=C(O)[C@@H]1CCCCN1; dPip = O=C(O)[C@H]1CCCCN1; hSer = N[C@@H](CCO)C(=O)O; NMeA = CN[C@@H](C)C(=O)O; Orn = NCCC[C@H](N)C(=O)O; dThz = O=C(O)[C@H]1CSCN1; Dab = NCC[C@H](N)C(=O)O; Dap = NC[C@H](N)C(=O)O; ξC = NC(CS)C(=O)O
# Biological target: T1, Human PD-L1/PD-1 (Homo sapiens, UniProt Q9NZQ7)
# T1 construct: TVMV protease cleavage site (C); made in house; host or cells: HEK293T cells
# T1 sequence (Q9NZQ7 with tags, fused parts or gaps): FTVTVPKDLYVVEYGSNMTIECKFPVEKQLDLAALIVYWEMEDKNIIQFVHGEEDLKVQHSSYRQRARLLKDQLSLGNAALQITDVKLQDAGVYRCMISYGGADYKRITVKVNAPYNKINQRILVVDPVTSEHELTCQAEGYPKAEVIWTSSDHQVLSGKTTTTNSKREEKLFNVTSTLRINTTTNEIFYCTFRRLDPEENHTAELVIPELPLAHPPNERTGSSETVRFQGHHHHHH
# Assay: HTRF Human PD-L1/PD-1 binding assay (PD-1-Ig/PD-L1-His)
# Conditions: PD-L1-His 10 nM, PD-1-Ig 20 nM; class symbol; read-out: HTRF Human PD-L1/PD-1 Binding Assay IC50 Range
# In short: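 Compound preincubated 15 min with PD-L1-His (10 nM final), then PD-1-Ig (20 nM final) added for 15 min in dPBS with 0.1% BSA and 0.05% Tween-20. Detection by Eu-cryptate anti-Ig (1 nM) and APC anti-His (20 nM) after 30 min; 665/620 nm HTRF ratio. Proteins expressed in HEK293T.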
row,pIC50,SMILES
1,8.00 to 9.00,CCCC[C@H]1C(=O)N2CCC[C@@H]2C(=O)N[C@@H](CC(=O)O)C(=O)N[C@@H](C(C)C)C(=O)N(C)[C@@H](Cc2ccccc2)C(=O)N[C@@H](CCN)C(=O)N2CCC[C@@H]2C(=O)N[C@@H](Cc2c[nH]c3ccccc23)C(=O)N[C@@H](Cc2ccc(O)cc2)C(=O)N[C@@H](CC(C)C)C(=O)N[C@H](C(=O)NCC(N)=O)CSCC(=O)N[C@@H](Cc2ccc(F)cc2)C(=O)N(C)[C@@H](Cc2ccccc2)C(=O)N1C [Example 10105] ({CH2CO}-[Phe(4-F)][NMeF][NMeNle][dP]DV[NMeF][Dab][dP]WYLCG-NH2; thioether N-13)
2,8.00 to 9.00,CCCC[C@H]1C(=O)N(C)[C@@H](CCCC)C(=O)N[C@@H](CC(C)C)C(=O)N[C@H](C(=O)NCC(N)=O)CSCC(=O)N[C@@H](Cc2ccc(O)cc2)C(=O)N(C)[C@@H](C)C(=O)N[C@@H](CC(N)=O)C(=O)N2CCC[C@H]2C(=O)N[C@@H](CN)C(=O)N[C@@H](CCC(=O)O)C(=O)N2C[C@H](O)C[C@H]2C(=O)N[C@@H](Cc2c[nH]c3ccccc23)C(=O)N[C@@H](CCN)C(=O)N[C@@H](Cc2cn(CC(=O)O)c3ccccc23)C(=O)N1C [Example 6146] ({CH2CO}-Y[NMeA]NP[Dap]E[Hyp]W[Dab][Trp(1-CH2COOH)][NMeNle][NMeNle]LCG-NH2; thioether N-14)
3,6.00 to 7.00,"CCCC[C@H]1C(=O)N2CCC[C@@H]2C(=O)N[C@@H](CC(=O)O)C(=O)N[C@@H](C(C)C)C(=O)N(C)[C@@H](Cc2ccccc2)C(=O)N[C@@H](Cc2ccc(O)cc2)C(=O)N2CCCC[C@@H]2C(=O)N[C@H](CCC(=O)O)C(=O)N[C@@H](Cc2ccc(O)cc2)C(=O)N[C@@H](CCCN)C(=O)N[C@H](C(=O)NCC(N)=O)CSCC(=O)N[C@@H](Cc2cc(F)c(F)c(F)c2)C(=O)N(C)[C@@H](Cc2ccc(F)cc2)C(=O)N1C [Example 10610] ({CH2CO}-[Phe(3,4,5-F3)][NMePhe(4-F)][NMeNle][dP]DV[NMeF]Y[dPip][dE]Y[Orn]CG-NH2; thioether N-13)"
4,8.00 to 9.00,"CC(C)C[C@@H]1NC(=O)[C@H](Cc2ccc(O)cc2)NC(=O)[C@H](Cc2c[nH]c3ccccc23)NC(=O)[C@H]2CCCCN2C(=O)[C@H](Cc2ccc(O)cc2)NC(=O)[C@H](Cc2ccccc2)N(C)C(=O)[C@H](C(C)C)NC(=O)[C@H](CC(=O)O)NC(=O)[C@H]2CCCN2C(=O)[C@H](C)N(C)C(=O)[C@H](Cc2ccc(F)cc2)N(C)C(=O)[C@H](Cc2cc(F)c(F)c(F)c2)NC(=O)CSC[C@@H](C(=O)NCC(N)=O)NC1=O [Example 10542] ({CH2CO}-[Phe(3,4,5-F3)][NMePhe(4-F)][NMeA][dP]DV[NMeF]Y[dPip]WYLCG-NH2; thioether N-13)"
5,8.00 to 9.00,CCCC[C@H]1C(=O)N(C)[C@@H](CCCC)C(=O)N[C@@H](CC(C)C)C(=O)N[C@H](C(=O)NCC(N)=O)CSCC(=O)N[C@@H](Cc2ccc(OC)cc2)C(=O)N(C)[C@@H](C)C(=O)N[C@@H](CC(N)=O)C(=O)N2CCC[C@H]2C(=O)N[C@@H](CO)C(=O)N[C@@H](CCC(N)=O)C(=O)N2C[C@H](O)C[C@H]2C(=O)N[C@@H](Cc2c[nH]c3ccccc23)C(=O)N[C@@H](CO)C(=O)N[C@@H](Cc2cn(CC(=O)O)c3ccccc23)C(=O)N1C [Example 7142] ({CH2CO}-Y(Me)[NMeA]NPSQ[Hyp]WS[Trp(1-CH2COOH)][NMeNle][NMeNle]LCG-NH2; thioether N-14)
6,8.00 to 9.00,"CCCC[C@H]1C(=O)N2C[C@@H](O)C[C@@H]2C(=O)N[C@@H](CC(=O)O)C(=O)N[C@@H](C(C)C)C(=O)N(C)[C@@H](Cc2ccccc2)C(=O)N[C@@H](CCC(=O)O)C(=O)N2CCCC[C@@H]2C(=O)N[C@@H](Cc2c[nH]c3ccccc23)C(=O)N[C@@H](Cc2ccc(O)cc2)C(=O)N[C@@H](CO)C(=O)N[C@H](C(=O)NCC(N)=O)CSCC(=O)N[C@@H](Cc2cc(F)c(F)c(F)c2)C(=O)N(C)[C@@H](Cc2ccc(F)cc2)C(=O)N1C [Example 10557] ({CH2CO}-[Phe(3,4,5-F3)][NMePhe(4-F)][NMeNle][dHyp]DV[NMeF]E[dPip]WYSCG-NH2; thioether N-13)"
7,8.00 to 9.00,CCCC[C@H]1C(=O)N2CSC[C@@H]2C(=O)N[C@@H](CC(=O)O)C(=O)N[C@@H](C(C)C)C(=O)N(C)[C@@H](Cc2ccccc2)C(=O)N[C@@H](Cc2ccc(O)cc2)C(=O)N2CCC[C@@H]2C(=O)N[C@@H](Cc2c[nH]c3ccccc23)C(=O)N[C@@H](Cc2ccc(O)cc2)C(=O)N[C@@H](CC(C)C)C(=O)N[C@H](C(=O)NCC(N)=O)CSCC(=O)N[C@@H](Cc2ccccc2)C(=O)N(C)[C@@H](Cc2ccccc2)C(=O)N1C [Example 10072] ({CH2CO}-F[NMeF][NMeNle][dThz]DV[NMeF]Y[dP]WYLCG-NH2; thioether N-13)
8,8.00 to 9.00,"CCCC[C@H]1C(=O)N2C[C@H](O)C[C@@H]2C(=O)N[C@@H](CC(=O)O)C(=O)N[C@@H](C(C)C)C(=O)N(C)[C@@H](Cc2ccccc2)C(=O)N[C@@H](CC(=O)O)C(=O)N2CCC[C@@H]2C(=O)N[C@@H](Cc2c[nH]c3ccccc23)C(=O)N[C@@H](Cc2ccc(O)cc2)C(=O)N[C@@H](CCO)C(=O)N[C@H](C(=O)NCC(N)=O)CSCC(=O)N[C@@H](Cc2cc(F)c(F)c(F)c2)C(=O)N(C)[C@@H](Cc2ccccc2)C(=O)N1C [Example 10155] ({CH2CO}-[Phe(3,4,5-F3)][NMeF][NMeNle][d(cisHyp)]DV[NMeF]D[dP]WY[hSer]CG-NH2; thioether N-13)"
9,8.00 to 9.00,"CCCC[C@H]1C(=O)N2C[C@@H](O)C[C@@H]2C(=O)N[C@@H](CC(=O)O)C(=O)N[C@@H](C(C)C)C(=O)N(C)[C@@H](Cc2ccccc2)C(=O)N[C@@H](CCC(=O)O)C(=O)N2CCCC[C@@H]2C(=O)N[C@@H](Cc2c[nH]c3ccccc23)C(=O)N[C@@H](Cc2ccc(O)cc2)C(=O)N[C@@H](CCC(N)=O)C(=O)N[C@H](C(=O)NCC(N)=O)CSCC(=O)N[C@@H](Cc2cc(F)c(F)c(F)c2)C(=O)N(C)[C@@H](Cc2ccc(F)cc2)C(=O)N1C [Example 10559] ({CH2CO}-[Phe(3,4,5-F3)][NMePhe(4-F)][NMeNle][dHyp]DV[NMeF]E[dPip]WYQCG-NH2; thioether N-13)"
10,8.00 to 9.00,CCCC[C@H]1C(=O)N(C)[C@@H](CCCC)C(=O)N[C@@H](CCC(=O)O)C(=O)NC(C(=O)NCC(N)=O)CSCC(=O)N[C@@H](Cc2ccc(O)cc2)C(=O)N(C)[C@@H](C)C(=O)N[C@@H](CC(N)=O)C(=O)N2CCC[C@H]2C(=O)N[C@@H](Cc2c[nH]cn2)C(=O)N[C@@H](CC(N)=O)C(=O)N2C[C@H](O)C[C@H]2C(=O)N[C@@H](Cc2c[nH]c3ccccc23)C(=O)N[C@@H](CCO)C(=O)N[C@@H](Cc2c[nH]c3ccccc23)C(=O)N1C (stereo partly drawn) [Example 9187] ({CH2CO}-Y[NMeA]NPHN[Hyp]W[hSer]W[NMeNle][NMeNle]E[ξC]G-NH2; thioether N-14)
11,7.00 to 8.00,"CCCC[C@H]1C(=O)N2CCOC[C@@H]2C(=O)N[C@@H](CC(=O)O)C(=O)N[C@@H](C(C)C)C(=O)N(C)[C@@H](Cc2ccccc2)C(=O)N[C@@H](CCC(=O)O)C(=O)N2C[C@@H](O)C[C@@H]2C(=O)N[C@@H](Cc2c[nH]c3ccccc23)C(=O)N[C@@H](Cc2ccc(O)cc2)C(=O)N[C@@H](CCCN)C(=O)N[C@H](C(=O)NCC(N)=O)CSCC(=O)N[C@@H](Cc2cc(F)c(F)c(F)c2)C(=O)N(C)[C@@H](Cc2ccccc2)C(=O)N1C [Example 9280] ({CH2CO}-[Phe(3,4,5-F3)][NMeF][NMeNle][X1]DV[NMeF]E[dHyp]WY[Orn]CG-NH2; thioether N-13)"
12,8.00 to 9.00,CCCC[C@H]1C(=O)N(C)[C@@H](CCCC)C(=O)N[C@@H](CCC(=O)O)C(=O)N[C@H](C(=O)NCC(N)=O)CSCC(=O)N[C@@H](Cc2ccc(O)cc2)C(=O)N2CCCC[C@H]2C(=O)N[C@@H](CC(N)=O)C(=O)N2CCC[C@H]2C(=O)N[C@@H](CO)C(=O)N[C@@H](CC(C)C)C(=O)N2C[C@H](O)C[C@H]2C(=O)N[C@@H](Cc2c[nH]c3ccccc23)C(=O)N[C@@H](CCN)C(=O)N[C@@H](Cc2cn(CC(=O)O)c3ccccc23)C(=O)N1C [Example 1305] ({CH2CO}-Y[Pip]NPSL[Hyp]W[Dab][Trp(1-CH2COOH)][NMeNle][NMeNle]ECG-NH2; thioether N-14)
13,8.00 to 9.00,"CCCC[C@H]1C(=O)N2CCNC[C@@H]2C(=O)N[C@@H](CC(=O)O)C(=O)N[C@@H](C(C)C)C(=O)N(C)[C@@H](Cc2ccccc2)C(=O)N[C@@H](CCC(=O)O)C(=O)N2C[C@H](O)C[C@@H]2C(=O)N[C@@H](Cc2c[nH]c3ccccc23)C(=O)N[C@@H](Cc2ccc(O)cc2)C(=O)N[C@@H](CC(C)C)C(=O)N[C@H](C(=O)NCC(N)=O)CSCC(=O)N[C@@H](Cc2cc(F)c(F)c(F)c2)C(=O)N(C)[C@@H](Cc2ccccc2)C(=O)N1C [Example 10167] ({CH2CO}-[Phe(3,4,5-F3)][NMeF][NMeNle][dPip(4-aza)]DV[NMeF]E[d(cisHyp)]WYLCG-NH2; thioether N-13)"
14,8.00 to 9.00,CCCC[C@H]1C(=O)N(C)[C@@H](CCCC)C(=O)N[C@@H](CCC(=O)O)C(=O)N[C@H](C(=O)NCC(N)=O)CSCC(=O)N[C@@H](Cc2ccc(O)cc2)C(=O)N(C)[C@@H](C)C(=O)N[C@@H](CC(=O)O)C(=O)N2CCC[C@H]2C(=O)N[C@@H](Cc2cnc[nH]2)C(=O)N[C@@H](CCC(=O)O)C(=O)N2C[C@H](O)C[C@H]2C(=O)N[C@@H](Cc2c[nH]c3ccccc23)C(=O)N[C@@H](CCC(=O)O)C(=O)N[C@@H](Cc2c[nH]c3ccccc23)C(=O)N1C [Example 5236] ({CH2CO}-Y[NMeA]DPHE[Hyp]WEW[NMeNle][NMeNle]ECG-NH2; thioether N-14)

# Same assay, conditions: PD-L1-His 10 nM, PD-1-Ig 20 nM; read-out: HTRF Human PD-L1/PD-1 Binding Assay IC50
row,pIC50,SMILES
1,8.35,"CCCC[C@H]1C(=O)N2CCC[C@@H]2C(=O)N[C@@H](CC(=O)O)C(=O)N[C@@H](C(C)(C)C)C(=O)N(C)[C@@H](Cc2ccccc2)C(=O)N[C@@H](Cc2ccc(O)cc2)C(=O)N2CCCC[C@@H]2C(=O)N[C@@H](Cc2c[nH]c3ccccc23)C(=O)N[C@@H](Cc2ccc(O)cc2)C(=O)N[C@@H](CC(C)C)C(=O)N[C@H](C(=O)NCC(N)=O)CSCC(=O)N[C@@H](Cc2cc(F)c(F)c(F)c2)C(=O)N(C)[C@@H](Cc2ccccc2)C(=O)N1C [Example 3222] ({CH2CO}-[Phe(3,4,5-F3)][NMeF][NMeNle][dP]D[Tle][NMeF]Y[dPip]WYLCG-NH2; thioether N-13)"
